Results as given in article PMC4290084, “Multiplex Imaging and Cellular Target Identification of Kinase Inhibitors via an Affinity-Based Proteome Profiling Approach” (Scientific Reports, 2015).

Experiments:
[1] = target: T1, Aurora kinase A (AKA) (Homo sapiens, UniProt O14965); assay: Kinase-Glo in vitro kinase inhibition assay with recombinant AKA; type: biochemical
T1 construct: gene AURKA; recombinant AKA
T1 sequence (O14965 1-403): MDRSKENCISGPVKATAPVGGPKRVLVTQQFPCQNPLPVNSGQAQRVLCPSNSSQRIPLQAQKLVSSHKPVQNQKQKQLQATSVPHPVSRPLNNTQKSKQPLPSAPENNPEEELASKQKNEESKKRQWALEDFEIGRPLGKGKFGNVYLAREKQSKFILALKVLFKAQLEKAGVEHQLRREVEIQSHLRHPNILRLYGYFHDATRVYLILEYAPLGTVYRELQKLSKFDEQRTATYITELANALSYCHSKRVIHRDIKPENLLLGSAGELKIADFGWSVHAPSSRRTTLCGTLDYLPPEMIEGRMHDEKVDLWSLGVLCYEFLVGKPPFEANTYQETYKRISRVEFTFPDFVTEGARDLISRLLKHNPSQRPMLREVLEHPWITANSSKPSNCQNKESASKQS

[2] = target: T1, Aurora kinase A (AKA); assay: Kinase-Glo in vitro kinase inhibition assay with recombinant AKA; also photoaffinity labeling with PD/WB and IP in HeLa cells; type: biochemical

IC50 [1] [nM]	IC50 [2] [nM]	Structure (SMILES)
67.2 ± 0.4		COc1cc(Nc2ncc3c(n2)-c2ccc(Cl)cc2C(c2c(F)cccc2OC)=NC3)ccc1C(=O)NCCNC(=O)OC1CC/C=C/CCC1 (stereo not drawn) [MLN-3]
23.3 ± 0.5		C#CCNC(=O)c1ccc(Nc2ncc3c(n2)-c2ccc(Cl)cc2C(c2c(F)cccc2OC)=NC3)cc1OC [MLN-1]
	15.1 ± 0.5	C#CCCC1(CCNC(=O)c2ccc(Nc3ncc4c(n3)-c3ccc(Cl)cc3C(c3c(F)cccc3OC)=NC4)cc2OC)N=N1 [MLN-2]
